Laboratory results taken from patent US8975263B2, “Phenylxanthene derivatives” (Daiichi Sankyo Company, Limited, priority 2013, dated 2015).

system: C57BL/6J mice; test: Oral glucose tolerance test; assay type: in vivo; conditions: male C57BL/6J mice, fasted overnight; oral gavage 10 mg/kg; solvent 0.5% MC; glucose 3 g/kg orally 30 minutes after compound; area under the curve of blood glucose level relative to control group
Experimental: Commercially available mice (C57BL/6J mice; male; 8 to 12 weeks old when used; distributed by Charles River Laboratories Japan, Inc.) were used.
After acclimatization with freely feeding (FR-2, Funabashi Farm Co., Ltd.) for one week or more, the mice were fasted overnight and then used for the test. A 0.5% methylcellulose (Wako Pure Chemical Industries, Ltd.) solution (0.5% MC) containing a test compound at a concentration of 1 mg/ml and a mixed solution (PG:Tween) of propylene glycol (80 v/v %, Nacalai Tesque, Inc.) and Tween 80 (20 v/v %, Nacalai Tesque, Inc.) containing a test compound at a concentration of 2 mg/ml were prepared for administration to the mice. The prepared solution was administered by oral gavage to four or five mice in each group at a dose of 10 mg/kg as the test compound. For a control group, a 0.5% methylcellulose solution (dose: 10 ml/kg) or a mixed solution of propylene glycol and Tween 80 (dose: 5 ml/kg) was orally administered to mice. An oral glucose tolerance test was carried out by administering a glucose solution (Otsuka Glucose Solution 50%; Otsuka Pharmaceutical Factory, Inc.) orally at a dose of 3 g/kg to the mice 30 minutes after administration of the test compound.
Blood was collected from the tail vein of each mouse immediately before administration of the test compound (T0), […] after administration of the test compound (T1), and 30 minutes (T2) and 90 minutes (T3) after oral glucose loading. The blood glucose level was measured using a blood glucose level measuring apparatus (ACCU-CHEK Aviva; Roche Diagnostics, K.K.). The blood glucose level T1 was analyzed as a value obtained 30 minutes after administration of the compound and immediately before glucose loading. According to the following formula, the area under the curve of blood glucose level was calculated, and thereafter, the blood glucose lowering rate (%) was calculated as a value relative to the control group. The area under the curve of blood glucose level=[(blood glucose level T0+blood glucose level T1)×30]÷2+[(blood glucose level T1+blood glucose level T2)×30]÷2+[(blood glucose level T2+blood glucose level T3)×60]÷2 Blood glucose lowering rate(%)=[1−(the area under the curve of blood glucose level for the test compound group/the area under the curve of blood glucose level for the control group)]×100

For `COc1ccc(-c2ccc(N)c(C(=O)O)n2)cc1C1C2=C(CC(C)(C)CC2=O)OC2=C1C(=O)CC(C)(C)C2` [Example 51, 3-Amino-6-[4-methoxy-3-(3,3,6,6-tetramethyl-1,8-dioxo-2,3,4,5,6,7,8,9-octahydro-1H-xanthen-9-yl)phenyl]pyridine-2-carboxylic acid], which “Blood glucose lowering rate (%)” value is on record?
The value was 39%.

`COc1ccc(-c2ccc(N)c(C(=O)NS(C)(=O)=O)n2)cc1C1C2=C(CC(C)(C)CC2=O)OC2=C1C(=O)CC(C)(C)C2` [Example 52, 3-Amino-6-[4-methoxy-3-(3,3,6,6-tetramethyl-1,8-dioxo-2,3,4,5,6,7,8,9-octahydro-1H-xanthen-9-yl)phenyl]-N-(methylsulfonyl)pyridine-2-carboxamide] was tested. Which “Blood glucose lowering rate (%)” value did it give?
Its value is 44%.

How did the “Blood glucose lowering rate (%)” value turn out when `CNc1ccc(-c2ccc(OC)c(C3C4=C(CC(C)(C)CC4=O)OC4=C3C(=O)CC(C)(C)C4)c2C)nc1C(=O)O` [Example 53, 6-[4-Methoxy-2-methyl-3-(3,3,6,6-tetramethyl-1,8-dioxo-2,3,4,5,6,7,8,9-octahydro-1H-xanthen-9-yl)phenyl]-3-(methylamino)pyridine-2-carboxylic acid] was run?
Its value is 64%.

Which “Blood glucose lowering rate (%)” value does the source give for `CNc1ccc(-c2ccc(OC)c(C3C4=C(CC(C)(C)CC4=O)OC4=C3C(=O)CC(C)(C)C4)c2C)nc1C(=O)NS(C)(=O)=O` [Example 54, 6-[4-Methoxy-2-methyl-3-(3,3,6,6-tetramethyl-1,8-dioxo-2,3,4,5,6,7,8,9-octahydro-1H-xanthen-9-yl)phenyl]-3-(methylamino)-N-(methylsulfonyl)pyridine-2-carboxamide] here?
Its value is 49%.

Which “Blood glucose lowering rate (%)” value does the source give for `COc1ccc(-c2ccnc(CO)n2)c(C)c1C1C2=C(CC(C)(C)CC2=O)OC2=C1C(=O)CC(C)(C)C2` [Example 76, 9-{3-[2-(Hydroxymethyl)pyrimidin-4-yl]-6-methoxy-2-methylphenyl}-3,3,6,6-tetramethyl-3,4,5,6,7,9-hexahydro-1H-xanthene-1,8(2H)-dione] here?
The value was 33%.

same assay, conditions: male C57BL/6J mice, fasted overnight; oral gavage 10 mg/kg; solvent PG:Tween; glucose 3 g/kg orally 30 minutes after compound; area under the curve of blood glucose level relative to control group

Which “Blood glucose lowering rate (%)” value does the source give for `COc1ccc(-c2ccnc(C(N)=O)n2)c(C)c1C1C2=C(CC(C)(C)CC2=O)OC2=C1C(=O)CC(C)(C)C2` [Example 75, 4-[4-Methoxy-2-methyl-3-(3,3,6,6-tetramethyl-1,8-dioxo-2,3,4,5,6,7,8,9-octahydro-1H-xanthen-9-yl)phenyl]pyrimidine-2-carboxylic acid amide] here?
Its value is 35%.
